{"source": "patent US9624234B2", "about": "“Heterocyclic compounds and methods for their use” (Novartis AG, priority 2012, dated 2017)"}
{"target": "AT2 receptor (Homo sapiens (Human), UniProt P50052)", "sequence (P50052 whole entry, species assumed)": "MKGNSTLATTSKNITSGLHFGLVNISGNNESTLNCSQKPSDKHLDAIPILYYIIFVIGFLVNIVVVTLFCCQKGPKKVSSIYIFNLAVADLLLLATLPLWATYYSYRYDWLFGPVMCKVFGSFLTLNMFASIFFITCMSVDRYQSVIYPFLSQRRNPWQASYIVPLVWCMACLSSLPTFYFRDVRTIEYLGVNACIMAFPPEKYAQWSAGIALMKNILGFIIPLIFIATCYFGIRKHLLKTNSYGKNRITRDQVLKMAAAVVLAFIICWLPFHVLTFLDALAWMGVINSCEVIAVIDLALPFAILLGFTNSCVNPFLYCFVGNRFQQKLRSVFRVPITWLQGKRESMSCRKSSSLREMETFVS", "test": "AT2 receptor binding ([125I]-CGP42112A radioligand, HEK293/AT2 receptor membranes)", "details": "HEK293/AT2 receptor transient transfected cell membranes, RT 1.5 hrs", "procedure": "• 1. Trypsin-EDTA (for preparation of 100 mL) • Trypsin 0.25 g • 2% EDTA 2 mL • PBS 98 mL • Dissolve trypsin in 2% EDTA and PBS completely; sterilize the solution by passing through a […] membrane filter; store at 4° C. • 2. DMEM medium (for preparation of 1 L) • The powder was dissolved into 950 mL of distilled water with gentle stirring until the solution becomes clear. • Add NaHCO3 1.176 g for DMEM medium. • Adjust pH of medium to 0.2-0.3 below final working pH using 1 M NaOH or 1 M HCl. Add slowly with stirring. • Dilute to 1 liter with ddH2O. • Sterilize the medium immediately by filtration. • Store at 4° C. • 3. TE buffer • 20 mM Tris-HCl, pH 7.4, • 5 mM EDTA • 4. Binding Assay Buffer • 50 mM Hepes, pH 7.4 • 5 mM MgCl2 • 1 mM CaCl2 • 0.2% BSA • 5. Wash Buffer • 50 mM Hepes, pH 7.4 Procedures for HEK293/AT2 Receptor Transient Cell Transfection • Cells were plated into 150 mm dish at 50% density for transient transfection. Cells were ready for transfection after overnight incubation (the confluence reaches around 80%). • 75 μL Lipofectamine™2000 diluted in 6.25 mL OptiMEM I Reduced Serum Medium, was mixed gently, and incubated at room temperature for 5 minutes. 50 μg expression plasmid DNA diluted in 6.25 mL OptiMEM I Reduced Serum Medium without serum was mixed gently. • After the 5 minute incubation, the diluted DNA was combined with the diluted Lipofectamine™2000 (total volume is 12.5 mL). The mixture was mixed gently and incubated for 30 minutes at room temperature to allow the DNA-Lipofectamine™2000 complexes to form. • The 12.5 mL DNA-Lipofectamine™2000 complexes were added into the 150 mm dish and mixed gently by rocking the dish back and forth. • The cells were incubated at 37° C. with 5% CO2 for 48 hours. • Cells were collected and stored frozen at −80° C. Procedures for HEK293/AT2 Receptor Cell Membrane Preparation • Frozen HEK293/AT2 receptor (transient transfected) cells were homogenized in ice cold TE buffer for 10 s. • The homogenate was centrifuged at 25,000 g for 30 minutes. • The pellet was resuspended in ice cold tissue buffer. • Protein concentrations were determined using Bradford assay method with BSA as standard. • The membrane protein was frozen under −80° C. Compound Preparation\nSolutions of all compounds were prepared by microplate liquid handling equipment such as Janus or Precision 2000. Compounds, dissolved in DMSO were stored in a Freezer. Compounds were prepared from 30 mM in 100% DMSO.\nStep 1: Dose Plate Preparation (96 Well Plate)\n• Add the 3 μL [30 mM] compound stock to column 1 on the plate. • Add 15 μL of 100% DMSO to column 1. • Add 10.81 μL of 100% DMSO to column 2-12. • Transfer 5 μL from column 1 into column 2 (half log dilution). • Transfer 5 μL from column 2 into column 3 (half log dilution). • Transfer 5 μL from column 3 into column 4 (half log dilution). • Transfer 5 μL from column 4 into column 5 (half log dilution). • Transfer 5 μL from column 5 into column 6 (half log dilution). • Transfer 5 μL from column 6 into column 7 (half log dilution). • Transfer 5 μL from column 7 into column 8 (half log dilution). • Transfer 5 μL from column 8 into column 9 (half log dilution). • Transfer 5 μL from column 9 into column 10 (half log dilution) • Transfer 5 μL from column 10 into column 11 (half log dilution) • Transfer 5 μL from column 11 into column 12 (half log dilution). All the compounds were diluted using Precision 2000 microplate liquid handling equipment. The top concentration of compound was 5 mM with 100% DMSO. Step 2: Working Plate Preparation (96 Well Plate) • Compounds were diluted 50-fold with buffer. • 49 μL buffer was added to the well of 96 well plate. • 1 μL compound solution from dose plate was transferred to the corresponding well of working plate. • The top concentration of compound was 100 μM with 2% DMSO. Step 3: Assay Plate Preparation (96 Well Plate)\n15 μL of compound solution was transferred from each well of working plate to the well of assay plate by Janus.", "units": {"IC50": "nM"}}
{"compound": "O=C(O)[C@@H]1Cc2c(c3ccccc3n2Cc2ccccc2)CN1C(=O)C(c1ccccc1)c1ccccc1", "note": "[Compound 1]", "IC50": 210}
{"compound": "O=C(O)[C@@H]1C[C@@H](N2CCC[C@H](c3ccccc3)C2)CCN1C(=O)C(c1ccccc1)c1ccccc1", "note": "[Compound 56, (2′S,3R,4′R)-1-(2,2-diphenylacetyl)-3-phenyl-[1,4′-bipiperidine]-2′-carboxylic acid]", "IC50": 111}
{"compound": "CN(CCc1ccccc1)[C@H]1CCN(C(=O)C(c2ccccc2)c2ccccc2)[C@H](C(=O)O)C1", "note": "[Compound 35, (2S,4S)-1-(2,2-diphenylacetyl)-4-(methyl(3-phenethyl)amino)piperidine-2-carboxylic acid]", "IC50": 101}
{"compound": "CC#CCN(C)[C@@H]1CCN(C(=O)C(c2ccccc2)c2ccccc2)[C@H](C(=O)O)C1", "note": "[Compound 42]", "IC50": 852}
{"compound": "CN(CCCc1ccccc1)[C@@H]1CCN(C(=O)C(c2ccccc2)c2ccccc2)[C@H](C(=O)O)C1", "note": "[Compound 31, (2S,4R)-1-(2,2-diphenylacetyl)-4-(methyl(phenylpropyl)amino)piperidine-2-carboxylic acid]", "IC50": 5090}
{"compound": "CN(CC#Cc1ccc(F)cc1)[C@H]1CCN(C(=O)C(c2ccccc2)c2ccccc2)[C@H](C(=O)O)C1", "note": "[Compound 47, (2S,4S)-1-(2,2-diphenylacetyl)-4-((3-(4-fluorophenyl)prop-2-yn-1-yl)(methyl)amino)piperidine-2-carboxylic acid]", "IC50": 1040}
{"compound": "CN(CC#Cc1ccccc1)[C@@H]1CCN(C(=O)C(c2ccccc2)c2ccccc2)[C@H](C(=O)O)C1", "note": "[Compound 32]", "IC50": 108}
{"compound": "O=C(O)[C@@H]1C[C@@H](N2CCC[C@@H](c3ccccc3)C2)CCN1C(=O)C(c1ccccc1)c1ccccc1", "note": "[Compound 58, (2′S,3S,4′S)-1′-(2,2-diphenylacetyl)-3-phenyl-[1,4′-bipiperidine]-2′-carboxylic acid]", "IC50": 170}
{"compound": "CN(CC#CC(C)(C)C)[C@@H]1CCN(C(=O)C(c2ccccc2)c2ccccc2)[C@H](C(=O)O)C1", "note": "[Compound 54, (2S,4R)-4-((4,4-dimethylpent-2-yn-1-yl)(methyl)amino)-1-(2,2-diphenylacetyl)piperidine-2-carboxylic acid]", "IC50": 33.9}
{"compound": "O=C(O)[C@@H]1C[C@H](OCC#Cc2ccccc2)CCN1C(=O)C(c1ccccc1)c1ccccc1", "note": "[Compound 40, (2S,4R)-1-(2,2-diphenylacetyl)-4-((3-phenylprop-2-yn-yl)oxy)piperidine-2-carboxylic acid]", "IC50": 228}
{"compound": "CN(CCc1ccccc1)[C@@H]1CCN(C(=O)C(c2ccccc2)c2ccccc2)[C@H](C(=O)O)C1", "note": "[Compound 34, (2S,4R)-1-(2,2-diphenylacetyl)-4-(methyl(3-phenethyl)amino)piperidine-2-carboxylic acid]", "IC50": 918}
{"compound": "O=C(O)[C@@H]1CC(OCc2ccccc2)CCN1C(=O)C(c1ccccc1)c1ccccc1", "note": "(stereo partly drawn) [Compound 26, (2S)-4-(benzyloxy)-1-(2,2-diphenylacetyl)piperidine-2-carboxylic acid]", "IC50": 218}
{"compound": "CN(CC#Cc1ccc(F)cc1)[C@@H]1CCN(C(=O)C(c2ccccc2)c2ccccc2)[C@H](C(=O)O)C1", "note": "[Compound 46]", "IC50": 55.9}
{"compound": "CC#CCN(C)[C@H]1CCN(C(=O)C(c2ccccc2)c2ccccc2)[C@H](C(=O)O)C1", "note": "[Compound 43]", "IC50": 2050}
{"compound": "CN(Cc1ccccc1)[C@H]1CCN(C(=O)C(c2ccccc2)c2ccccc2)[C@H](C(=O)O)C1", "note": "[Compound 39, (2S,4S)-4-(benzyl(methyl)amino)-1-(2,2-diphenylacetyl)piperidine-2-carboxylic acid]", "IC50": 648}
{"compound": "CN(CC#Cc1ccccc1)[C@H]1CCN(C(=O)C(c2ccccc2)c2ccccc2)[C@H](C(=O)O)C1", "note": "[Compound 33, (2S,4S)-1-(2,2-diphenylacetyl)-4-(methyl(3-phenylprop-2-yn-1yl)amino)piperidine-2-carboxylic acid]", "IC50": 2710}
{"compound": "O=C(O)[C@@H]1Cc2c(ccc3c2Oc2ccccc2O3)CN1C(=O)C(c1ccccc1)c1ccccc1", "note": "[Compound 9, (S)-3-(2,2-diphenylacetyl)-1,2,3,4-tetrahydrobenzo[5,6][1,4]dioxino[2,3-f]isoquinoline-2-carboxylic acid]", "IC50": 159}
{"compound": "CN(Cc1ccccc1)[C@@H]1CCN(C(=O)C(c2ccccc2)c2ccccc2)[C@H](C(=O)O)C1", "note": "[Compound 38, (2S,4R)-4-(benzyl(methyl)amino)-1-(2,2-diphenylacetyl)piperidine-2-carboxylic acid]", "IC50": 854}
{"compound": "O=C(O)[C@@H]1C[C@H](N2CCC[C@H](c3ccccc3)C2)CCN1C(=O)C(c1ccccc1)c1ccccc1", "note": "[Compound 55, (2′S,3R,4′R)-1′-(2,2-diphenylacetyl)-3-phenyl-[1,4′-bipiperidine]-2′-carboxylic acid]", "IC50": 294}
{"compound": "O=C(O)[C@@H]1C[C@H](N2CCC[C@@H](c3ccccc3)C2)CCN1C(=O)C(c1ccccc1)c1ccccc1", "note": "[Compound 57, (2′S,3S,4′R)-1′-(2,2-diphenylacetyl)-3-phenyl-[1,4′-bipiperidine]-2′-carboxylic acid]", "IC50": 1440}
{"compound": "O=C(O)[C@@H]1C[C@H](OCCCc2ccccc2)CCN1C(=O)C(c1ccccc1)c1ccccc1", "note": "[Compound 41, (2S,4R)-1-(2,2-diphenylacetyl)-4-((3-phenylpropyl)oxy)piperidine-2-carboxylic acid]", "IC50": 101}
